Laboratory results: PubChem BioAssay AID618 (Sanford-Burnham Center for Chemical Genomics, 2007)
Calls of active or inactive are those of the source. How the calls were made is not given here.

system: MT1-MMP promoter luciferase reporter cells, luminescence; assay: inhibitors of MT1-MMP promoter transcription, cell-based, luciferase reporter, luminescence (AID 618);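 further: actives suppress MT1-MMP promoter-driven transcription so potencies describe inhibitors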

Row | Structure (SMILES) | EC50
1 | O=C(/C=C\Nc1ccccn1)c1ccccc1 | 2.01 µM
2 | O=C1c2ccccc2C(=O)C1c1nccc2ccccc12 | 1.83 µM
3 | Cc1ccccc1Cn1nnc(-c2cccc(C(=O)O)c2)n1 | 18 µM
4 | O=C(CN1C(=O)c2ccccc2S1(=O)=O)c1ccccc1 | > 50 µM (inactive)
5 | CC(=O)N(Cc1ccc(F)cc1)C1=C(NCCc2ccccc2)C(=O)c2ccccc2C1=O | 12.2 µM
6 | COc1ccc(-c2nsc3c(N4CCCCC4)ncnc23)cc1 | 0.27 µM
7 | COc1ccccc1-c1nc(-c2ccccn2)no1 | 1.82 µM
8 | Cc1ccc(SCc2cn3c(C)csc3n2)cc1 | 5.82 µM
9 | COCCn1c(C)cc(C2=NNC(=Nc3ccccc3)SC2)c1C | 5.3 µM
10 | Cc1nc2ccc(-c3nc4cc(N)ccc4o3)cc2[nH]1 | 3.71 µM
11 | Cc1c(C(=O)NCC2CCCO2)oc2ccc3c(c12)C(=O)CC(C)(C)O3 (configuration not stated) | 12.5 µM
12 | Fc1ccc(-c2nnc(-c3ccc(Cl)cc3Cl)o2)cc1 | 8.19 µM
13 | CCOC(=O)CNC(=O)CSc1ncnc2c1cnn2-c1ccc(C)cc1 | 28 µM
14 | CCOc1ccc(OCc2ccc(C(=O)O)o2)cc1 | 5.8 µM
15 | O=C(NC1=NCCS1)c1cc2ccccc2o1 | 6.52 µM
16 | Cc1ccc(-c2nnc(SCC(=O)Nc3ccccc3F)o2)cc1 | 0.6 µM
17 | CCN=C1NN=C(c2ccc(C)cc2)CS1 | 1.98 µM
18 | CCCCOc1ccc(C(=O)C(CN2CCOCC2)c2ccccc2)cc1 (configuration not stated) | 13 µM
19 | C=CCn1c(C)cc(C(=O)CSc2ccc(NC(C)=O)cc2)c1C | 2.37 µM
20 | Oc1c(CN2CCc3ccccc3C2)cc(Cl)c2cccnc12 | 5.81 µM
21 | O=C(O)c1cccc(C(=O)Nc2cccc(NC(=O)C3CCCO3)c2)c1 (configuration not stated) | 10.1 µM
22 | CC(C)(C)c1ccc(-c2nc(-c3ccncc3)no2)cc1 | 6.13 µM
23 | Brc1ccccc1-c1nc(-c2ccccc2)no1 | 6.92 µM

Row | Structure (SMILES) | EC50
24 | COc1nc(C)ccc1-c1noc(-c2ccco2)n1 | 10.9 µM
25 | Cc1ccc(C(=O)Nc2cnc3ccccc3c2)cc1 | 0.2 µM
26 | Cc1ccc(-c2nc3n(n2)Cc2ccccc2-3)cc1 | 1.49 µM
27 | COc1cccc(C(=O)Nc2nc3ccccc3[nH]2)c1 | 0.96 µM
28 | Cc1ccc(-c2nc(-c3ccccc3)no2)cc1 | 2.87 µM
29 | CC(C)C(=O)Nc1ccc(-c2nc3cccnc3o2)cc1 | 6.05 µM
30 | Fc1ccccc1OCCSc1nnnn1-c1ccccc1 | 12.7 µM
31 | Cc1ccc(OCc2nc(-c3ccccn3)no2)c(Br)c1 | 2.17 µM
32 | O=C(/C=C\Nc1ccc2c(c1)OCO2)c1ccccn1 | 0.23 µM
33 | O=S1(=O)Nc2c(ccc3cccnc23)-c2ccccc21 | 24.6 µM
34 | CC(=O)Nc1ccc(SCC(=O)c2cc(C)n(Cc3cccs3)c2C)cc1 | 1.22 µM
35 | CCCOc1ccc(-c2nnc(-c3cccs3)o2)cc1 | 4.37 µM
36 | COC(=O)c1ccc(-c2nc3cc(N)ccc3o2)cc1 | 3.09 µM
37 | Cc1cc(N2CCOCC2)n2ncc(-c3ccccc3)c2n1 | 3.57 µM
38 | Clc1cccc(-c2nnc(-c3ccccc3)o2)c1 | 7.03 µM
39 | CC1=NC(=O)C(N=Nc2cccc(C(=O)O)c2)N1c1ccccc1 (configuration not stated) | 1.64 µM
40 | O=C(CSc1nnc(-c2csc3c2CCCC3)o1)Nc1ccccc1 | 4.27 µM
41 | COC(=O)c1nn(-c2ccc3c(c2)CCN3C(C)=O)cc1O | 0.61 µM
42 | O=c1c2ccccc2nnn1CSc1nnc2sc3ccccc3n12 | 8.02 µM
43 | Cc1ccc(C(=O)CSc2nnnn2C(C)C)c(C)c1 | 1.7 µM
44 | CCOC(=O)CCS(=O)(=O)c1nc(-c2ccccc2)cc(C(F)(F)F)n1 | 15.7 µM
45 | O=C(c1ccc(Cl)cc1)N1CCCCC(Sc2nnc(-c3ccc4c(c3)OCO4)o2)C1=O (configuration not stated) | 0.14 µM
46 | O=C(Nc1nc2c(s1)CCCC2)C1COc2ccccc2O1 (configuration not stated) | 2.4 µM

Row | Structure (SMILES) | EC50
47 | Cc1cc(NC(=O)CSc2nc(-c3ccco3)cc(C(F)(F)F)n2)no1 | > 50 µM (inactive)
48 | COc1ccc(C(=O)/C=C/Nc2cccc(O)c2)cc1 | 1.23 µM
49 | COc1ccc(NC(=O)c2cc3ccccn3n2)cc1 | 4.38 µM
50 | Cc1cc(C)c2c(N)c(C(=O)Nc3ncc(C)s3)sc2n1 | 0.21 µM
51 | O=C(O)CCSc1nnc(-c2ccc3c(c2)OCO3)o1 | 29.7 µM
52 | Cc1cccc(-n2ncc3c(N4CCCC4)ncnc32)c1 | 7.6 µM
53 | N#C/C(=C\c1ccc(N2CCOCC2)o1)c1nc2ccccc2[nH]1 | 4.32 µM
54 | O=C1C(Cl)=C(N2CCCCC2)C(=O)C(Cl)=C1c1cnc(N2CCCCC2)s1 | 4.53 µM
55 | Oc1cccc(-c2nc3ccccc3s2)c1 | 2.99 µM
56 | O=C(c1cc(-c2cccc(O)c2)on1)N1CCCCC1 | 6.35 µM
57 | O=c1/c(=C/c2ccccn2)sc2nc3ccccc3n12 | 10 µM
58 | Oc1ccc(Nc2nc(N3CCCC3)c3ccccc3n2)cc1 | 26.5 µM
59 | CCOc1ccc(-c2cc(CCCC(=O)Nc3cc(OC)ccc3OC)no2)cc1 | 3.5 µM
60 | Cc1ccc(-c2nc3cc(C)ccc3o2)cc1 | 2.32 µM
61 | Cc1cc(C(=O)COC(=O)c2n[nH]c3ccccc23)c(C)n1C | 7.21 µM
62 | c1ccc(-c2cnc(-c3ccccc3)nc2)cc1 | 3.74 µM
63 | O=c1c(Cl)c(N2CCCCC2)cnn1-c1nc2ccccc2[nH]1 | 0.59 µM
64 | Cc1ccc2nc(NC(=O)c3ccco3)sc2c1 | 1 µM
65 | C=CCNc1ncnc2c1cnn2-c1ccc(OC)cc1 | 8.5 µM
66 | CC(=O)N(/N=C1\Sc2ccccc2C1=O)c1ccc(C)cc1C | 1.97 µM
67 | COc1ccc(C(=O)Nn2c(SCC(=O)N3CCC(C)CC3)nc3ccccc3c2=O)cc1 | 1.98 µM
68 | COc1ccc(-c2cc3nc(C)cc(N)n3n2)cc1 | 1.73 µM
69 | Cc1ccc(O)c(/C=N/NC(=O)C2=NNC(c3ccccc3)(c3ccccc3)C2)c1 | 19 µM

Row | Structure (SMILES) | EC50
70 | c1ccc(-c2cn3nc4c(nc3n2)CCCC4)cc1 | 0.54 µM
71 | COc1ccc(S(=O)(=O)N2CCN(C(=O)CCC3CCCC3)CC2)cc1 | > 50 µM (inactive)
72 | CCCC(=O)Nc1ccc(-c2nc3cc(C)ccc3o2)cc1 | 12 µM
73 | O=C(c1c(Cl)nc2sccn12)N1CCN(c2cccc(Cl)c2)CC1 | 48.6 µM
74 | Cc1cc(C)c2c(N)c(C(=O)Nc3nccs3)sc2n1 | 1.32 µM
75 | COc1ccc(C(=O)Nn2c(SCC(=O)NCc3ccco3)nc3ccccc3c2=O)cc1 | 1.14 µM
76 | CN1CCN(CC(=O)N2CCn3c4c(c5cc(C6CCCCC6)ccc53)CCCC42)CC1 (configuration not stated) | 12 µM
77 | O=C(Nc1nc2ccccc2[nH]1)c1ccccc1 | 3.53 µM
78 | Cc1ccc(C(=O)Nc2cccc(C(=O)O)c2)cc1 | 0.66 µM
79 | Nc1ccc(C(=O)Nc2nc3ccccc3s2)cc1 | 3.47 µM
80 | CC(C)CNC(=O)c1coc(=O)c(Br)c1 | 18.5 µM
81 | O=S(=O)(c1ccc(Cl)cc1)c1snnc1-c1ccccc1 | 13.2 µM
82 | CC(C)(C)c1ccc(C(=O)N2CCCCCC2=O)cc1 | 12.8 µM
83 | CCN1C=CC(=C2C(=O)c3ccccc3C2=O)C=C1 | 0.2 µM
84 | CC(C)(C)c1ccc(OCC(O)CSc2ncn[nH]2)cc1 (configuration not stated) | 16.9 µM
85 | CN(C)c1ccc(N/C=C/C(=O)c2ccco2)cc1 | 4.42 µM
86 | N#Cc1c(NC(=O)CSc2ncn[nH]2)sc2c1CCCCC2 | < 0.098 µM
87 | CCOC(=O)c1sc2nc3c(cc2c1N)COC(C(C)C)C3 (configuration not stated) | 1.62 µM
88 | CCCCCN=Cc1c(C)[nH]n(-c2nc3ccccc3s2)c1=O | 6.14 µM
89 | O=C(Nc1ccc2c(c1)OCCO2)c1cncc(Br)c1 | 7.14 µM
90 | Nc1ccc(-c2nc3c(Cl)cc(N)cc3[nH]2)cc1 | 10.7 µM
91 | COc1ccc(-c2cn3nc4c(nc3n2)CCCC4)cc1 | 0.59 µM
92 | Cc1ccc(-n2nc3ccc(N)cc3n2)cc1 | 13.6 µM
